{"source": "patent EP0010667A1", "about": "“Cepham compounds, pharmaceutical compositions containing them and processes for the preparation thereof and of known cephem compounds” (FUJISAWA PHARMACEUTICAL CO., LTD., priority 1978, dated 1980)", "key": {"[1]": {"system": "Klebsiella pneumoniae 20", "assay": "In vitro antibacterial activity, two-fold agar-plate dilution method", "assay_type": "cell-based", "settings": "heart infusion agar (HI-agar), incubated at 37°C for 20 hours", "description": "(§1) In vitro antibacterial activity was determined by the two-fold agar-plate dilution'method as described below. One loopful of an overnight culture of each test strain in Trypticase soy broth was streaked on heart infusion agar (HI-agar) containing graded concentration of the test compound and incubated at 37°C for 20 hours. The minimal inhibitory concentration (MIC) was expressed in µg/m1."}, "[2]": {"system": "Proteus mirabilis 18", "assay": "In vitro antibacterial activity, two-fold agar-plate dilution method", "assay_type": "cell-based", "settings": "heart infusion agar (HI-agar), incubated at 37°C for 20 hours", "description": "as §1"}}}
{"smiles": "CO/N=C(\\C(=O)NC1C(=O)N2C(C(=O)O)C(=COC(C)=O)CSC12)c1csc(N)n1", "note": "(stereo not drawn) [Test compound, 7-[2-(2-Aminothiazol-4-yl)-2-methoxyimino-acetamido]-3-acetoxymethylenecepham-4-carboxylic acid (syn isomer)]", "values": [{"measurement": "MIC", "setting": "[1]", "value": 6.25, "unit": "µg/mL"}, {"measurement": "MIC", "setting": "[2]", "value": 6.25, "unit": "µg/mL"}]}
